Results reported in patent US6949353B2, “Capping enzyme of flavivirus and utilization of this protein in a process to test drugs with antiviral properties” (priority 2001, dated 2005).

Columns and labels:
[1] = target: T1, CEF (Capping Enzyme of Flavivirus) (Dengue virus type 2, UniProt P14340); experiment: Competition with radiolabeled GTP for CEF, CEF-GTP complex assayed by UV-crosslinking; assay type: binding, Dengue virus type 2 (New Guinea)
T1 construct: is a thirty-three kDa N-terminal domain of the RNA-dependent RNA polymerase; made in house; host or cells: E. coli (vector pQE30)
Protocol: The invention can also be useful in methods for determining the inhibitory power of a biologically active compound acting as a competitive inhibitor of GTP comprising: • a) incubating CEF with radiolabeled GTP, • b) adding selected different concentrations of the biologically active compound, • c) assaying resulting radiolabeled CEF-GTP complex produced from the incubation, • d) quantifying an amount of radiolabeled CEF-GTP complex produced from the assay, • e) comparing the amount to a binding affinity constant of GTP to CEF, and • f) determining the inhibitory power of the biologically active compound.
More particularly, the incubating step in the methods of the invention is conducted at about 52 μM of GTP. Selected different concentrations of GTP are about 0 μM, about 10 μM, about 20 μM, about 50 μM, about 100 μM, about 200 μM, about 300 μM, about 500 μM, and about 800 μM. Assaying in the methods of the invention comprises UV-crosslinking of α-^32P-GTP to CEF.
The CEF-GTP complex is then assayed using UV-crosslinking as described above. If acyclovir 5′triphosphate competes with radiolabeled GTP for the CEF active-site, acyclovir 5′triphosphate will replace GTP in the active-site.

[2] = target: T1, CEF (Capping Enzyme of Flavivirus); experiment: UV-crosslinking of α-32P-GTP (or α-32P-ATP) to CEF, direct binding; parameters: species or system Dengue virus type 2 (New Guinea)
Protocol: In the drawings, as noted above, FIGS. 1A and 1B are a pair of photographs of gel electrophoresis. […] 2 μg of CEF was incubated with 50 μM (1 μCi) of either α-^32P-GTP (lane 1, 2, 5, 6) or α-^32P-ATP (lanes 3, 4) in 50 mM Tris pH 7.6, 5 mM DTT in the presence (lane 1, 3-6)) or absence (lane 2) of 5 mM Mg^2+. The sample was cross-linked using UV irradiation (254 nm), boiled for 5 min, and subjected to denaturing gel electrophoresis. Products were analyzed and quantified using photostimulable plates and a FujiImager. Bacteriophage T4 DNA ligase served as a positive control (lane 5). The F25A variant of CEF was purified under the same conditions as those of wild-type CEF. Upper panels show the comassie-blue stained gels, and lower panels the corresponding autoradiographic analysis. […] The mixture was boiled for 5 min, subjected to denaturing gel electrophoresis, and the gel analyzed and quantified as in panel A. Upper panels show the comassie-blue stained gels, and lower panels the corresponding autoradiographic analysis. […]
The binding affinity constant of GTP to CEF can be easily determined using a fixed concentration of CEF and increasing concentrations of radiolabeled GTP as described in FIG. 1A. […]

[3] = target: T1, CEF (Capping Enzyme of Flavivirus); experiment: Competition with α-32P-GTP for covalent binding to CEF (no UV, gel electrophoresis/autoradiography); parameters: species or system Dengue virus type 2 (New Guinea); conditions: 0-1000 μM competitor, 10 min before α-32P-GTP, with magnesium
Protocol: In the drawings, as noted above, FIGS. 1A and 1B are a pair of photographs of gel electrophoresis. […] 2 μg of CEF was incubated with 50 μM (1 μCi) of either α-^32P-GTP (lane 1, 2, 5, 6) or α-^32P-ATP (lanes 3, 4) in 50 mM Tris pH 7.6, 5 mM DTT in the presence (lane 1, 3-6)) or absence (lane 2) of 5 mM Mg^2+. The sample was cross-linked using UV irradiation (254 nm), boiled for 5 min, and subjected to denaturing gel electrophoresis. Products were analyzed and quantified using photostimulable plates and a FujiImager. Bacteriophage T4 DNA ligase served as a positive control (lane 5). The F25A variant of CEF was purified under the same conditions as those of wild-type CEF. Upper panels show the comassie-blue stained gels, and lower panels the corresponding autoradiographic analysis. […] CEF was incubated during 10 min with increasing concentrations of Ribavirin 5′-triphosphate (0-50-250-500-750-1000 μM, lanes 1- to 6, respectively) before addition of α-^32P-GTP to the reaction mixture and further incubation for 20 min. The mixture was boiled for 5 min, subjected to denaturing gel electrophoresis, and the gel analyzed and quantified as in panel A. Upper panels show the comassie-blue stained gels, and lower panels the corresponding autoradiographic analysis. Ribavirin: Ribavirin 5′-triphosphate; Lig: Bacteriophage T4 DNA ligase. […]

SMILES: Nc1nc2c(ncn2COCCOP(=O)(O)OP(=O)(O)OP(=O)(O)O)c(=O)[nH]1 [acyclovir 5′-triphosphate]
- Kd ([1]; CEF first incubated with about 52 μM GTP, increasing competitor, read-out: relative binding affinity constant for binding to CEF): ~79 µM
- inhibition of the CEF enzyme (in words) ([1]; CEF-acyclovir 5′-triphosphate binding assay): good inhibitor of the CEF enzyme

SMILES: Nc1nc2c(ncn2[C@@H]2O[C@H](COP(=O)(O)OP(=O)(O)OP(=O)(O)O)[C@@H](O)[C@H]2O)c(=O)[nH]1 [GTP]
- Kd ([2]; fixed CEF, increasing radiolabeled GTP, hyperbolic saturation, read-out: binding affinity constant Kd of GTP to CEF): 52 µM

SMILES: NC(=O)c1ncn([C@@H]2O[C@H](COP(=O)(O)OP(=O)(O)OP(=O)(O)O)[C@@H](O)[C@H]2O)n1 [Ribavirin 5′-triphosphate]
- effect on GTP-binding to CEF [3]: able to decrease GTP-binding to CEP

SMILES: Nc1ncnc2c1ncn2[C@@H]1O[C@H](COP(=O)(O)OP(=O)(O)OP(=O)(O)O)[C@@H](O)[C@H]1O [α-^32P-ATP]
- labeling of CEF by radiolabeled nucleotide after UV irradiation ([2]; 50 μM nucleotide, 2 μg CEF, UV 254 nm): unable to label CEF significantly
